{
  "source": "patent US20230094176A1",
  "about": "“COMPOUNDS AND METHODS FOR IMPROVING IMPAIRED ENDOGENOUS FIBRINOLYSIS USING HISTONE DEACETYLASE INHIBITORS” (Cereno Scientific AB, priority 2011, published 2023)",
  "key": {"t-PA mRNA in HUVECs": {"tested_on": "t-PA mRNA in HUVECs", "assay": "C100: dose giving a 100% increase of t-PA mRNA in HUVEC (24 h)", "type": "cell-based, human", "protocol": "HUVECs are treated with different concentrations of first generation hydroxamates (TSA), second generation hydroxamates (Givinostat, Vorinostat, Belinostat, Panobinostat, SB939, PCI24781), benzamides (Mocetinostat, Entinostat) or short chain fatty acids (SCFA, Butyrate, Phenylbutyrate) for 24 h and t-PA mRNA was measured. The doses giving a 100% increase of t-PA mRNA (C100) was determined and compared to the maximum plasma concentration (Cmax) achieved when the maximum tolerated dose (MTD) of each substance is administered to humans, by dividing the C100 with the Cmax. […] In the table below the values for MTD and Cmax are from the following references (mentioned in the same order as in the table): Steele, N. L. et al Cancer Chemother Pharmacol 67(6):1273-9 (2011), Kelly, K. K. et al J Clin Oncol 23:3923-3931 (2005), Furlan, A. et al Mol Med 17(5-6) 353-362 (2011), Fukutomi, A. et al Invest New Drugs 2011 Apr. 12, Yong, W. P. et al Ann Oncol 22(11) 2516-22 (2011), Garcia-Manero, G. et al. Blood 112: 981-989 (2008), Ryan, Q. C. et al J Clin Oncol 23(17): 3912-3922 (2005), Edelman, M. J. et al Cancer Chemother Pharmacol 51: 439-444, http://www.drugs.com/pro/buphenyl.html *Butyrate was administered in the prodrug form tributyrin."}, "[1]": {"details": "cited from earlier work; for Cmax / Cmax (ng/ml): maximum plasma concentration when the MTD is administered to humans"}, "[2]": {"tested_on": "TNF-a suppressed t-PA mRNA in HUVECs", "assay": "TNF-alpha suppression of t-PA mRNA in HUVEC: anti-inflammatory substances versus Givinostat", "type": "cell-based, human", "details": "HUVEC, TNF-a 1 h then substance; ASA 1 mM, IBU 1 mM", "protocol": "HUVECs were treated with TNF-alpha (TNF-a) for 1 h and then optimal concentrations of the anti.inflammatory substances acetylsalicylic acid (ASA, 1 mM) and ibuprofen (IBU, 1 mM) was added. Givinostat was also added to the cells for comparison. Cells were harvested and t-PA mRNA levels analysed according to example 1."}, "[3]": {"tested_on": "t-PA mRNA expression in human umbilical vein endothelial cells (HUVECs)", "assay": "In vitro dose response: t-PA mRNA (and protein) expression in HUVEC after 24 h", "type": "cell-based", "protocol": "Human umbilical vein endothelial cells (HUVECs) were prepared by collagenase treatment of fresh umbilical cords (Jaffe, E. A., et al. J Clin Invest 52, 2745-2756 (1973)) obtained from the maternity ward of the Sahlgrenska University hospital, Gotheburg, Sweden. Cells were cultured in EGM-2 medium (Lonza, Basel, Switzerland) and all experiments were performed in passage 1 of subcultivation. Confluent HUVECs were exposed to 10 nM-10 μM of Vorinostat (Selleck Chemicals, Houston, Tex., USA) in complete medium for 24 h. After 24 h, cells and conditioned media were harvested.\nTotal RNA was prepared using RNeasy Mini RNA kit (Qiagen, Hilden, Germany) and genomic DNA was removed using RNase-free DNase I set (Qiagen). Levels of t-PA mRNA were analyzed with real-time RT-PCR, performed on an Applied Biosystems 7500 Fast Real-Time PCR System using cDNA and Taqman reagents obtained from Applied Biosystems (Foster City, Calif., USA). Hypoxanthine phosphoribosyl transferase (HPRT, Assay number Hs99999909_m1, Applied Biosystems) was used as endogenous internal standard.\nEndothelial cells in culture are known to constitutively secrete the majority of synthesized t-PA making conditioned media a suitable source for quantification of t-PA protein. Conditioned medium from cell cultures was collected, centrifuged (10 000×g, 10 min, 4° C.) to remove cell debris, transferred to fresh tubes and stored at −70° C. Concentrations of t-PA antigen in conditioned media were determined using the commercially available TriniLize t-PA antigen ELISA (Trinity Biotech, Bray, Ireland) according to manufacturer's protocol."}, "[4]": {"tested_on": "t-PA production in endothelial cells", "details": "Arts et al 1995; cited from earlier work"}},
  "note": "Like-named read-outs stand apart in the source and are kept apart here.",
  "data": [
    {"compound": "CCCC(=O)O", "note": "[Butyrate]", "values": [
      {"measurement": "C100 tPA (μM)", "setting": "t-PA mRNA in HUVECs", "result": 100, "unit": "µM"},
      {"measurement": "MTD", "setting": "[1]; humans, literature, butyrate administered in the prodrug form tributyrin", "result": 200, "unit": "mg/kg t.i.d"},
      {"measurement": "Cmax", "setting": "[1]; butyrate as prodrug tributyrin", "result": 100, "unit": "µM"}
    ]},
    {"compound": "Nc1ccccc1NC(=O)c1ccc(CNC(=O)OCc2cccnc2)cc1", "note": "[Entinostat]", "values": [
      {"measurement": "C100 tPA", "setting": "t-PA mRNA in HUVECs", "result": 0.3, "unit": "µM"},
      {"measurement": "Cmax", "setting": "[1]", "result": 0.12, "unit": "µM"},
      {"measurement": "Cmax (ng/ml)", "setting": "[1]", "result": 45, "unit": "ng/mL"}
    ]},
    {"compound": "CC(C)Cc1ccc(C(C)C(=O)O)cc1", "note": "(centres unmarked) [IBU, ibuprofen]", "values": [
      {"measurement": "effect on TNF-a mediated suppression of t-PA expression", "setting": "[2]", "result": "not counteracted"}
    ]},
    {"compound": "CC(=O)Oc1ccccc1C(=O)O", "note": "[ASA, acetylsalicylic acid]", "values": [
      {"measurement": "effect on TNF-a mediated suppression of t-PA expression", "setting": "[2]", "result": "not counteracted"}
    ]},
    {"compound": "CC(=O)Oc1ccccc1C(=O)O", "note": "[aspirin]", "values": [
      {"measurement": "effect on TNF-a mediated suppression of t-PA expression", "setting": "[2]", "result": "unable to reverse"}
    ]},
    {"compound": "Phenylbutyrate", "values": [
      {"measurement": "C100 tPA (μM)", "setting": "t-PA mRNA in HUVECs", "result": 1300, "unit": "µM"},
      {"measurement": "MTD", "setting": "[1]; humans, literature", "result": 5, "unit": "g"},
      {"measurement": "Cmax", "setting": "[1]; butyrate as prodrug tributyrin", "result": 1100, "unit": "µM"},
      {"measurement": "Cmax (ng/ml)", "setting": "[1]", "result": "218 000 ng/ml"}
    ]},
    {"compound": "CCCCc1nc2cc(/C=C/C(=O)NO)ccc2n1CCN(CC)CC", "note": "[SB939, (2E)-3-{2-butyl-1-[2-(diethylamino)ethyl]-1H-benzimidazol-5-yl}-N-hydroxyacrylamide]", "values": [
      {"measurement": "C100 tPA", "setting": "t-PA mRNA in HUVECs", "result": 0.05, "unit": "µM"},
      {"measurement": "MTD", "setting": "[1]; humans, literature", "result": 0.08, "unit": "g"},
      {"measurement": "Cmax", "setting": "[1]", "result": 1.1, "unit": "µM"},
      {"measurement": "Cmax (ng/ml)", "setting": "[1]", "result": "~400", "unit": "ng/mL"},
      {"measurement": "MTD", "setting": "[1]; once daily, oncology treatment or trials", "result": 60, "unit": "mg once daily"},
      {"measurement": "concentration at which a significant increase of t-PA mRNA levels was seen", "setting": "[3]", "result": 30, "unit": "nM"},
      {"measurement": "concentration of maximal effect on t-PA expression", "setting": "[3]", "result": "around 1 μM"},
      {"measurement": "increase of t-PA expression at maximal effect", "setting": "[3]", "result": "approximately 10 times"}
    ]},
    {"compound": "CC(/C=C/C(=O)NO)=C\\[C@@H](C)C(=O)c1ccc(N(C)C)cc1", "note": "[Trichostatin A, trichostatin A]", "values": [
      {"measurement": "t-PA production in endothelial cells", "setting": "[4]", "result": "increased"}
    ]},
    {"compound": "CC(C)Cc1ccc(C(C)C(=O)O)cc1", "note": "(centres unmarked) [ibuprofen]", "values": [
      {"measurement": "effect on TNF-a mediated suppression of t-PA expression", "setting": "[2]", "result": "unable to reverse"}
    ]}
  ]
}
